For this assay, the target named is Cyclin-dependent kinase 1 (Homo sapiens, UniProt P06493). Put plainly: Inhibition of CDK1.
Chain of Cyclin-dependent kinase 1 (P06493 whole entry): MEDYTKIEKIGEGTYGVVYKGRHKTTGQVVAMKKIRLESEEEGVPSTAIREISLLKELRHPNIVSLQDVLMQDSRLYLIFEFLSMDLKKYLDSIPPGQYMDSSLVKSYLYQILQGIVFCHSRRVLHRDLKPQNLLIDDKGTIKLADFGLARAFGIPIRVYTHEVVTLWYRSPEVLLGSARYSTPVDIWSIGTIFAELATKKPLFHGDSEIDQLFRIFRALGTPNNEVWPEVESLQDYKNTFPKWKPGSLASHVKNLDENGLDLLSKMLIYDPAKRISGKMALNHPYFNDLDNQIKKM
In general, IC50 refers to the concentration needed to halve the response being measured. `OCCNC(=S)Nc1ccc(C(F)(F)F)cc1` came in with an IC50 of 1.4 µM.

The compound `OCCSC(=S)Nc1ccc(Cl)c(Cl)c1` registered an IC50 of 2.5 µM.

Regarding `O=C(NCCCO)c1cc(Cl)ccc1O`, the IC50 was 2.53 µM.

`OCCN(CCO)Cc1cc(Cl)c2cccnc2c1O` showed a 50% inhibitory concentration (IC50) of 3.23 µM.

The compound `CCN(CCO)CCCNc1ccnc2cc(Cl)ccc12` registered an IC50 of 0.83 µM.

Take `COC(=O)c1cc(NC(C)=O)ccc1S(=O)(=O)c1ccc(NC(C)=O)cc1C(=O)OC`: the half-inhibitory concentration (IC50) was 0.91 µM.

`Cc1cc2[nH]c(=S)n([C@@H]3O[C@H](CO)[C@@H](O)[C@H]3O)c2cc1C` yielded an IC50 of 2.1 µM.

In turn, `O=Cc1cc(CCCCCCc2ccc(O)c(C=O)c2)ccc1O` yielded an IC50 of 4.9 µM.

Regarding `C[C@H](N[C@@H](C)COc1ccccc1)[C@@H](O)c1ccc(O)cc1`, the IC50 came to 2.9 µM.

The compound `COc1cc(OC)nc(NC(=O)NS(=O)(=O)c2cc(NC=O)ccc2C(=O)N(C)C)n1` [FORAMSULFURON] came in with a half-maximal inhibitory concentration (IC50) of 3.6 µM.

Regarding `O=c1c(O)c(-c2ccc(O)c(O)c2)oc2cc(O)cc(O)c12` [QUERCETIN], the IC50 worked out at 0.45 µM.
